For one assay, the target named is T1, rat TAAR1 (Rattus norvegicus, UniProt Q923Y9).
T1 construct: expressed in transfected cells; membrane preparation
Briefly: Radioligand binding assay on rat TAAR1. The note with it: rat TAAR1, HEK-293 membranes, second value of cell mouse/rat. As to the method: (§1) For the construction of expression plasmids the coding sequences of human, rat and mouse TAAR 1 were amplified from genomic DNA essentially as described by Lindemann et al.. The Expand High Fidelity PCR System (Roche Diagnostics) was used with 1.5 mM Mg^2+ and purified PCR products were cloned into pCR2.1-TOPO cloning vector (Invitrogen) following the instructions of the manufacturer. PCR products were subcloned into the pIRESneo2 vector (BD Clontech, Palo Alto, Calif.), and expression vectors were sequence verified before introduction in cell lines.
(§2) HEK293 cells (ATCC # CRL-1573) were cultured essentially as described by Lindemann et al. (2005). For the generation of stably transfected cell lines HEK293 cells were transfected with the pIRESneo2 expression plasmids containing the TAAR coding sequences (described above) with Lipofectamine 2000 (Invitrogen) according to the instructions of the manufacturer, and 24 hrs post transfection the culture medium was supplemented with 1 mg/ml G418 (Sigma, Buchs, Switzerland). After a culture period of about 10 d clones were isolated, expanded and tested for responsiveness to trace amines (all compounds purchased from Sigma) with the cAMP Biotrak Enzyme immunoassay (EIA) System (Amersham) following the non-acetylation EIA procedure provided by the manufacturer.
Radioligand Binding Assay on Rat TAAR1
(§3) Membrane Preparation and Radioligand Binding.
HEK-293 cells stably expressing rat TAAR1 were maintained at 37° C. and 5% CO2 in DMEM high glucose medium, containing fetal calf serum (10%, heat inactivated for 30 min at 56° C.), penicillin/streptomycin (1%), and 375 μg/ml geneticin (Gibco). Cells were released from culture flasks using trypsin/EDTA, harvested, washed twice with ice-cold PBS (without Ca^2+ and Mg^2+), pelleted at 1,000 rpm for 5 min at 4° C., frozen and stored at −80° C. Frozen pellets were suspended in 20 ml HEPES-NaOH (20 mM, pH 7.4) containing 10 mM EDTA and homogenized with a Polytron (PT 6000, Kinematica) at 14,000 rpm for 20 s. The homogenate was centrifuged at 48,000×g for 30 min at 4° C. Subsequently, the supernatant was removed and discarded, and the pellet resuspended in 20 ml HEPES-NaOH (20 mM, pH 7.4) containing 0.1 mM EDTA using the Polytron (20 s at 14,000 rpm). This procedure was repeated and the final pellet resuspended in HEPES-NaOH containing 0.1 mM EDTA and homogenized using the Polytron. Typically, aliquots of 2 ml membrane portions were stored at −80° C. With each new membrane batch the dissociation constant (Kd) was determined via a saturation curve. […] Nonspecific binding was defined as the amount of ^3[H]—(S)-4-[(ethyl-phenyl-amino)-methyl]-4,5-dihydro-oxazol-2-ylamine bound in the presence of 10 μM unlabeled ligand. All compounds were tested at a broad range of concentrations (10 pM to 10 μM) in duplicates. The test compounds (20 μl/well) were transferred into a 96 deep well plate (TreffLab), and 180 μl of HEPES-NaOH (20 mM, pH 7.4) containing MgCl2 (10 mM) and CaCl2 (2 mM) (binding buffer), 300 μl of the radioligand ^3[H]—(S)-4-[(ethyl-phenyl-amino)-methyl]-4,5-dihydro-oxazol-2-ylamine at a concentration of 3.3×Kd in nM and 500 μl of the membranes (resuspended at 50 μg protein per ml) added. The 96 deep well plates were incubated for 1 hr at 4° C. Incubations were terminated by rapid filtration through Unifilter-96 plates (Packard Instrument Company) and glass filters GF/C (Perkin Elmer) presoaked for 1 hr in polyethylenimine (0.3%) and washed 3 times with 1 ml of cold binding buffer. After addition of 45 μl of Microscint 40 (PerkinElmer) the Unifilter-96 plate was sealed and after 1 hr the […] counted using a TopCount Microplate Scintillation Counter (Packard Instrument Company).

A further assay has as its target T2, mouse TAAR1 (Mus musculus, UniProt Q923Y8).
T2 construct: expressed in transfected cells; membrane preparation
Briefly: Radioligand binding assay on mouse TAAR1. The note with it: mouse TAAR1, HEK-293 membranes, first value of cell mouse/rat. As to the method:
as §1, §2
Radioligand Binding Assay on Mouse TAAR1
as §3
HEK-293 cells stably expressing mouse TAAR1 were maintained at 37° C. and 5% CO2 in DMEM high glucose medium, containing fetal calf serum (10%, heat inactivated for 30 min at 56° C.), penicillin/streptomycin (1%), and 375 μg/ml geneticin (Gibco). Cells were released from culture flasks using trypsin/EDTA, harvested, washed twice with ice-cold PBS (without Ca^2+ and Mg^2+), pelleted at 1,000 rpm for 5 min at 4° C., frozen and stored at −80° C. Frozen pellets were suspended in 20 ml HEPES-NaOH (20 mM, pH 7.4) containing 10 mM EDTA and homogenized with a Polytron (PT 6000, Kinematica) at 14,000 rpm for 20 s. The homogenate was centrifuged at 48,000×g for 30 min at 4° C. Subsequently, the supernatant was removed and discarded, and the pellet resuspended in 20 ml HEPES-NaOH (20 mM, pH 7.4) containing 0.1 mM EDTA using the Polytron (20 s at 14,000 rpm). This procedure was repeated and the final pellet resuspended in HEPES-NaOH containing 0.1 mM EDTA and homogenized using the Polytron. Typically, aliquots of 2 ml membrane portions were stored at −80° C. With each new membrane batch the dissociation constant (Kd) was determined via a saturation curve. The TAAR1 radioligand ^3[H]—(S)-4-[(ethyl-phenyl-amino)-methyl]-4,5-dihydro-oxazol-2-ylamine (described in WO 2008/098857) was used at a concentration equal to the calculated Kd value, that was usually around 0.7 nM, resulting in the binding of approximately 0.5% of the radioligand and a specific binding representing approximately 70% of the total binding. Nonspecific binding was defined as the amount of ^3[H]—(S)-4-[(ethyl-phenyl-amino)-methyl]-4,5-dihydro-oxazol-2-ylamine bound in the presence of 10 μM unlabeled ligand. All compounds were tested at a broad range of concentrations (10 pM to 10 μM) in duplicates. The test compounds (20 μl/well) were transferred into a 96 deep well plate (TreffLab), and 180 μl of HEPES-NaOH (20 mM, pH 7.4) containing MgCl2 (10 mM) and CaCl2 (2 mM) (binding buffer), 300 μl of the radioligand ^3[H]—(S)-4-[(ethyl-phenyl-amino)-methyl]-4,5-dihydro-oxazol-2-ylamine at a concentration of 3.3×Kd in nM and 500 μl of the membranes (resuspended at 60 μg protein per ml) added. The 96 deep well plates were incubated for 1 hr at 4° C. Incubations were terminated by rapid filtration through Unifilter-96 plates (Packard Instrument Company) and glass filters GF/C (Perkin Elmer) presoaked for 1 hr in polyethylenimine (0.3%) and washed 3 times with 1 ml of cold binding buffer. […]

Each structure is given as a SMILES string. Structures can show the parent of a compound that is named as a salt.

T2 sequence (Q923Y8 whole entry): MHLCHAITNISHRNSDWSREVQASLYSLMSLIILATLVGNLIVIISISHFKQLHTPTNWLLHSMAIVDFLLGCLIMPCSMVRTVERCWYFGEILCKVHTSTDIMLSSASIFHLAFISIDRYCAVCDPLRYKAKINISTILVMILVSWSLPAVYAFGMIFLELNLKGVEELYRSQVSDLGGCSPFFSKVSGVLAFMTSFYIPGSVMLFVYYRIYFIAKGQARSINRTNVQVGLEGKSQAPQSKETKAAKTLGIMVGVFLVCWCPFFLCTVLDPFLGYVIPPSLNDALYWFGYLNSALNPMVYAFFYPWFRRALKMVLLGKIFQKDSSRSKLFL
T1 sequence (Q923Y9 whole entry): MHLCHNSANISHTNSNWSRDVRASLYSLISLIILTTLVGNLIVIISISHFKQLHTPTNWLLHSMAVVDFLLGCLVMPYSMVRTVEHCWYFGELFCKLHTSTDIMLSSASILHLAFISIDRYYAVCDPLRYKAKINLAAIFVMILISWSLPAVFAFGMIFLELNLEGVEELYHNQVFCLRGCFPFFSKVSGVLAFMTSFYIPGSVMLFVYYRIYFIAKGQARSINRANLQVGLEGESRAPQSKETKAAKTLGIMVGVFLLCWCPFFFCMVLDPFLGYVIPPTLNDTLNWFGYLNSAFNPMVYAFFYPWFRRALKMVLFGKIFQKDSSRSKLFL

In the case of `O=C(Nc1ccc([C@H]2CNCCO2)c(F)c1)c1cnc(N2CC(F)(F)C2)cn1` [Example 16, 5-(3,3-Difluoro-azetidin-1-yl)-pyrazine-2-carboxylic acid ((S)-3-fluoro-4-morpholin-2-yl-phenyl)-amide hydrochloride], the figures for the Ki at rat TAAR1 and at mouse TAAR1 were 0.191 µM and 0.0193 µM, respectively.

`CC(C)c1cncc(C(=O)Nc2ccc([C@H]3CNCCO3)cc2F)n1` [Example 22, 6-Isopropyl-pyrazine-2-carboxylic acid ((S)-2-fluoro-4-morpholin-2-yl-phenyl)-amide]: the Ki – broadly, a measure of affinity in units of concentration, obtained from inhibition or displacement – at rat TAAR1 was 0.391 µM; on mouse TAAR1 it was 0.0522 µM.

As for `O=C(Nc1ccc([C@@H]2CNCCO2)c(F)c1)c1cncc(C(F)(F)F)n1` [Example 6, (R)—N-(3-Fluoro-4-(morpholin-2-yl)phenyl)-6-(trifluoromethyl)pyrazine-2-carboxamide hydrochloride], the Ki on rat TAAR1 is 0.0197 µM; on mouse TAAR1, 0.0328 µM.

For the compound `N#Cc1cc(NC(=O)c2cncc(C(F)(F)F)n2)ccc1[C@@H]1CNCCO1` [Example 4, (R)—N-(3-Cyano-4-(morpholin-2-yl)phenyl)-6-(trifluoromethyl)pyrazine-2-carboxamide hydrochloride], the figures for the Ki at rat TAAR1 and on mouse TAAR1 were 0.0344 µM and 0.0833 µM, respectively.

Regarding `O=C(Nc1ccc([C@@H]2CNCCO2)c(F)c1)c1cnc(C2CC2)cn1` [Example 17, 5-Cyclopropyl-pyrazine-2-carboxylic acid ((R)-3-fluoro-4-morpholin-2-yl-phenyl)-amide hydrochloride], the figures for the Ki at rat TAAR1 and on mouse TAAR1 were 0.0076 µM and 0.0072 µM, respectively.

On to `O=C(Nc1ccc([C@@H]2CNCCO2)cc1F)c1cncc(OCC(F)(F)F)n1` [Example 29, (R)—N-(2-Fluoro-4-(morpholin-2-yl)phenyl)-6-(2,2,2-trifluoroethoxy)pyrazine-2-carboxamide], for which the Ki at rat TAAR1 came to 0.0053 µM; at mouse TAAR1, 0.0447 µM.

On to `O=C(Nc1ccc([C@@H]2CNCCO2)c(F)c1)c1cncc(OCC(F)(F)F)n1` [Example 30, (R)—N-(3-Fluoro-4-(morpholin-2-yl)phenyl)-6-(2,2,2-trifluoroethoxy)pyrazine-2-carboxamide], for which the Ki was 0.0035 µM on rat TAAR1 and 0.0292 µM at mouse TAAR1.

Turning to `O=C(Nc1ccc([C@@H]2CNCCO2)cc1F)c1cnc(OCC(F)(F)F)cn1` [Example 27, (R)—N-(2-Fluoro-4-(morpholin-2-yl)phenyl)-5-(2,2,2-trifluoroethoxy)pyrazine-2-carboxamide], the Ki on rat TAAR1 worked out at 0.0183 µM; on mouse TAAR1 it was 0.0059 µM.

`O=C(Nc1ccc([C@H]2CNCCO2)c(F)c1)c1cnc2ccccc2n1` [Example 14, (S)—N-(3-Fluoro-4-(morpholin-2-yl)phenyl)quinoxaline-2-carboxamide hydrochloride]: the results for the Ki on rat TAAR1 and at mouse TAAR1 were 0.0222 µM and 0.0028 µM, respectively.

With `O=C(Nc1ccc([C@H]2CNCCO2)cc1F)c1cncc(OCC(F)(F)F)n1` [Example 25, (S)—N-(2-Fluoro-4-(morpholin-2-yl)phenyl)-6-(2,2,2-trifluoroethoxy)pyrazine-2-carboxamide], the Ki on rat TAAR1 came to 0.0122 µM; on mouse TAAR1 it was 0.044 µM.

Regarding `O=C(Nc1ccc([C@H]2CNCCO2)c(F)c1)c1cnc(C2CC2)cn1` [Example 18, 5-Cyclopropyl-pyrazine-2-carboxylic acid ((S)-3-fluoro-4-morpholin-2-yl-phenyl)-amide hydrochloride], the Ki at rat TAAR1 turned out to be 0.0625 µM; on mouse TAAR1, 0.0036 µM.

Consider `O=C(Nc1ccc([C@H]2CNCCO2)c(F)c1)c1cnc(OCC2CCC2)cn1` [Example 11, (S)-5-(Cyclobutylmethoxy)-N-(3-fluoro-4-(morpholin-2-yl)phenyl)pyrazine-2-carboxamide hydrochloride], for which the Ki was 0.0119 µM at rat TAAR1 and 0.0046 µM at mouse TAAR1.

Consider `O=C(Nc1ccc([C@H]2CNCCO2)c(F)c1)c1cncc(C(F)(F)F)n1` [Example 5, (S)—N-(3-Fluoro-4-(morpholin-2-yl)phenyl)-6-(trifluoromethyl)pyrazine-2-carboxamide hydrochloride], for which the Ki on rat TAAR1 was 0.054 µM; at mouse TAAR1 it was 0.038 µM.

These data come from patent publication US20160272626A1, “PYRAZINE DERIVATIVES” (HOFFMANN-LA ROCHE INC., priority 2012, published 2016).
